The results in this text go back to PubChem BioAssay AID1259407 (Chemical Carcinogenesis Research Information System (CCRIS), 2018).

This series relates to CCRIS mutagenicity, Ames/micronucleus/aberration tests. Put plainly: CCRIS mutagenicity studies.
[1] abbreviates: Test System: AMES SALMONELLA TYPHIMURIUM, Strain/Indicator: TA100, Metabolic Activation: NONE, Method: PREINCUBATION

The source made the active and inactive calls. How the calls were made is not given here.

`CC(=O)CN(C)N=O`: the mutagenic call is, setting by setting: (Test System: AMES SALMONELLA TYPHIMURIUM, Strain/Indicator: TA100, Metabolic Activation: HAMSTER, LIVER, S-9, 3-METHYLCHOLANTHRENE, Method: PREINCUBATION) “active; positive”; (Test System: AMES SALMONELLA TYPHIMURIUM, Strain/Indicator: TA100, Metabolic Activation: HAMSTER, LIVER, S-9, PHENOBARBITAL, Method: PREINCUBATION) “active; positive”; (Test System: AMES SALMONELLA TYPHIMURIUM, Strain/Indicator: TA100, Metabolic Activation: HUMAN, LIVER, S-9, Method: PREINCUBATION) “inactive; negative”; (Test System: AMES SALMONELLA TYPHIMURIUM, Strain/Indicator: TA100, Metabolic Activation: MONKEY, LIVER, S-9, Method: PREINCUBATION) “active; positive”; (Test System: AMES SALMONELLA TYPHIMURIUM, Strain/Indicator: TA100, Metabolic Activation: MOUSE, LIVER, S-9, 3-METHYLCHOLANTHRENE, Method: PREINCUBATION) “active; positive”; (Test System: AMES SALMONELLA TYPHIMURIUM, Strain/Indicator: TA100, Metabolic Activation: MOUSE, LIVER, S-9, PHENOBARBITAL, Method: PREINCUBATION) “active; positive”. The mutagenic call was “active; positive” (Test System: AMES SALMONELLA TYPHIMURIUM, Strain/Indicator: TA100, Metabolic Activation: MOUSE, LIVER, S-9, Method: PREINCUBATION); “inactive; negative” under setting [1]; “active; positive” (Test System: AMES SALMONELLA TYPHIMURIUM, Strain/Indicator: TA100, Metabolic Activation: RABBIT, LIVER, S-9, Method: PREINCUBATION); “inactive; negative” (Test System: AMES SALMONELLA TYPHIMURIUM, Strain/Indicator: TA100, Metabolic Activation: RAT, LIVER, CYTOSOL, PCB, Method: PREINCUBATION); “active; positive” (Test System: AMES SALMONELLA TYPHIMURIUM, Strain/Indicator: TA100, Metabolic Activation: RAT, LIVER, MICROSOMES AND CYTOSOL, PCB, Method: PREINCUBATION); “active; positive” (Test System: AMES SALMONELLA TYPHIMURIUM, Strain/Indicator: TA100, Metabolic Activation: RAT, LIVER, MICROSOMES AND G6PDH, PCB, Method: PREINCUBATION). Besides, the mutagenic call by setting is: (Test System: AMES SALMONELLA TYPHIMURIUM, Strain/Indicator: TA100, Metabolic Activation: RAT, LIVER, MICROSOMES, PCB, Method: PREINCUBATION) “active; positive”; (Test System: AMES SALMONELLA TYPHIMURIUM, Strain/Indicator: TA100, Metabolic Activation: RAT, LIVER, S-9 (HEATED), PCB, Method: PREINCUBATION) “inactive; negative”; (Test System: AMES SALMONELLA TYPHIMURIUM, Strain/Indicator: TA100, Metabolic Activation: RAT, LIVER, S-9, 3-METHYLCHOLANTHRENE, Method: PREINCUBATION) “inactive; negative”; (Test System: AMES SALMONELLA TYPHIMURIUM, Strain/Indicator: TA100, Metabolic Activation: RAT, LIVER, S-9, PCB, Method: PREINCUBATION) “active; positive”; (Test System: AMES SALMONELLA TYPHIMURIUM, Strain/Indicator: TA100, Metabolic Activation: RAT, LIVER, S-9, PHENOBARBITAL, Method: PREINCUBATION) “active; positive”; (Test System: AMES SALMONELLA TYPHIMURIUM, Strain/Indicator: TA100, Metabolic Activation: RAT, LIVER, S-9 WITHOUT NADP+, PCB, Method: PREINCUBATION) “inactive; negative”. In addition, the mutagenic call runs as follows: (Test System: AMES SALMONELLA TYPHIMURIUM, Strain/Indicator: TA100, Method: PREINCUBATION) “active; positive”; (Test System: CHINESE HAMSTER V-79, Strain/Indicator: V-79/OUABAIN, Metabolic Activation: HAMSTER, HEPATOCYTES, Method: CELL-MEDIATED) “active; positive”.

In the case of `CCCCCCN(N=O)/C(N)=N/[N+](=O)[O-]`, for the setting “Test System: AMES SALMONELLA TYPHIMURIUM, Strain/Indicator: TA1535, Metabolic Activation: NONE, Method: STANDARD PLATE”, the mutagenic call was “active; positive”.

With `CCCCCCC[CH2][Sn]1([CH2]CCCCCCC)[O]C(=O)C=CC(=O)[O]1`, the mutagenic call by setting is: (Test System: AMES SALMONELLA TYPHIMURIUM, Strain/Indicator: TA97, Metabolic Activation: HAMSTER, LIVER, S-9, AROCLOR 1254 (10 OR 30%), Method: PREINCUBATION) “inactive; negative”; (Test System: AMES SALMONELLA TYPHIMURIUM, Strain/Indicator: TA97, Metabolic Activation: NONE, Method: PREINCUBATION) “inactive; negative”; (Test System: AMES SALMONELLA TYPHIMURIUM, Strain/Indicator: TA97, Metabolic Activation: RAT, LIVER, S-9, AROCLOR 1254 (10 OR 30%), Method: PREINCUBATION) “inactive; negative”; (Test System: AMES SALMONELLA TYPHIMURIUM, Strain/Indicator: TA98, Metabolic Activation: HAMSTER, LIVER, S-9, AROCLOR 1254 (10 OR 30%), Method: PREINCUBATION) “inactive; negative”; (Test System: AMES SALMONELLA TYPHIMURIUM, Strain/Indicator: TA98, Metabolic Activation: NONE, Method: PREINCUBATION) “inactive; negative”; (Test System: AMES SALMONELLA TYPHIMURIUM, Strain/Indicator: TA98, Metabolic Activation: RAT, LIVER, S-9, AROCLOR 1254 (10 OR 30%), Method: PREINCUBATION) “inactive; negative”. Also, the mutagenic call (Test System: AMES SALMONELLA TYPHIMURIUM, Strain/Indicator: TA100, Metabolic Activation: HAMSTER, LIVER, S-9, AROCLOR 1254 (10 OR 30%), Method: PREINCUBATION) is “inactive; negative”; the mutagenic call under setting [1] was “inactive; negative”; the mutagenic call (Test System: AMES SALMONELLA TYPHIMURIUM, Strain/Indicator: TA100, Metabolic Activation: RAT, LIVER, S-9, AROCLOR 1254 (10 OR 30%), Method: PREINCUBATION) was “inactive; negative”; the mutagenic call (Test System: AMES SALMONELLA TYPHIMURIUM, Strain/Indicator: TA1535, Metabolic Activation: HAMSTER, LIVER, S-9, AROCLOR 1254 (10 OR 30%), Method: PREINCUBATION) is “inactive; negative”; the mutagenic call (Test System: AMES SALMONELLA TYPHIMURIUM, Strain/Indicator: TA1535, Metabolic Activation: NONE, Method: PREINCUBATION) was “inactive; negative”; the mutagenic call (Test System: AMES SALMONELLA TYPHIMURIUM, Strain/Indicator: TA1535, Metabolic Activation: RAT, LIVER, S-9, AROCLOR 1254 (10 OR 30%), Method: PREINCUBATION) was “inactive; negative”.

For the molecule `N#CCCC(Br)(C#N)CBr` (stereo unspecified), the mutagenic call is, setting by setting: (End Point: In vivo micronucleus, Test System: Peripheral blood normochromatic erythrocytes, Species: Mouse, Strain/Sex: B6C3F1/Female, Route: Dermal) “inactive; negative”; (End Point: In vivo micronucleus, Test System: Peripheral blood normochromatic erythrocytes, Species: Mouse, Strain/Sex: B6C3F1/Male, Route: Dermal) “inactive; negative”; (Test System: Ames Salmonella typhimurium, Strain/Indicator: TA97, Metabolic Activation: Hamster, Liver, S-9, Aroclor 1254 (10 and 30%), Method: Preincubation) “inactive; negative”; (Test System: Ames Salmonella typhimurium, Strain/Indicator: TA97, Metabolic Activation: None, Method: Preincubation) “inactive; negative”; (Test System: Ames Salmonella typhimurium, Strain/Indicator: TA97, Metabolic Activation: Rat, Liver, S-9, Aroclor 1254 (10 and 30%), Method: Preincubation) “inactive; negative”; (Test System: Ames Salmonella typhimurium, Strain/Indicator: TA98, Metabolic Activation: Hamster, Liver, S-9, Aroclor 1254 (10 and 30%), Method: Preincubation) “inactive; negative”. The mutagenic call was “inactive; negative” (Test System: Ames Salmonella typhimurium, Strain/Indicator: TA98, Metabolic Activation: None, Method: Preincubation); “inactive; negative” (Test System: Ames Salmonella typhimurium, Strain/Indicator: TA98, Metabolic Activation: Rat, Liver, S-9, Aroclor 1254 (10 and 30%), Method: Preincubation); “inactive; negative” (Test System: Ames Salmonella typhimurium, Strain/Indicator: TA100, Metabolic Activation: Hamster, Liver, S-9, Aroclor 1254 (10 and 30%), Method: Preincubation); “inactive; negative” (Test System: Ames Salmonella typhimurium, Strain/Indicator: TA100, Metabolic Activation: None, Method: Preincubation); “inactive; negative” (Test System: Ames Salmonella typhimurium, Strain/Indicator: TA100, Metabolic Activation: Rat, Liver, S-9, Aroclor 1254 (10 and 30%), Method: Preincubation); “inactive; negative” (Test System: Ames Salmonella typhimurium, Strain/Indicator: TA1535, Metabolic Activation: Hamster, Liver, S-9, Aroclor 1254 (10 and 30%), Method: Preincubation). For the same molecule, the mutagenic call reads like this: (Test System: Ames Salmonella typhimurium, Strain/Indicator: TA1535, Metabolic Activation: None, Method: Preincubation) “inactive; negative”; (Test System: Ames Salmonella typhimurium, Strain/Indicator: TA1535, Metabolic Activation: Rat, Liver, S-9, Aroclor 1254 (10 and 30%), Method: Preincubation) “inactive; negative”; (Test System: E. coli, Strain/Indicator: WP2 uvrA/pKM101, Metabolic Activation: None, Method: Preincubation) “inactive; negative”; (Test System: E. coli, Strain/Indicator: WP2 uvrA/pKM101, Metabolic Activation: Rat, Liver, S-9, Aroclor 1254 (10%), Method: Preincubation) “inactive; negative”.

In the case of `COc1c2ccoc2cc2oc(=O)ccc12`, the mutagenic call reads like this: (Test System: AMES SALMONELLA TYPHIMURIUM, Strain/Indicator: TA98, Metabolic Activation: NONE, Method: STANDARD PLATE) “inactive; negative”; (Test System: AMES SALMONELLA TYPHIMURIUM, Strain/Indicator: TA98, Metabolic Activation: RAT, LIVER, S-9, PHENOBARBITAL, Method: STANDARD PLATE) “inactive; negative”.
